Test results: patent US11186618B2, “Dendritic-cell-targeted peptide, fusion peptide utilizing said peptide, and vaccine utilizing said fusion peptide” (The Research Foundation for Microbial Diseases of Osaka …, priority 2016, dated 2021)

Tests used:
[1] = tested on: NeutrAvidin-specific antibody; experiment: NeutrAvidin-specific antibody titer in sera of mice given biotinylated peptide/NeutrAvidin complex, ELISA (Test Example 12); assay type: in vivo, mouse; conditions: 5 μg as NeutrAvidin, base of tail Day 0 and Day 10, serum Day 17, IgG
From the text: A biotinylated peptide was synthesized by linking the N-terminus of each of FL4 identified in Test Example 1, a peptide Mut 1 (amino acid sequence: ASYKAIR (SEQ ID NO: 2)) derived from FL4 of which the 1st amino acid residue was substituted by an alanine residue, a peptide Mut 2 (amino acid sequence: VAYKAIR (SEQ ID NO: 3)) derived from FL4 of which the 2nd amino acid residue was substituted by an alanine residue, a peptide Mut 3 (amino acid sequence: VSAKAIR, SEQ ID NO: 43) derived from FL4 of which the 3rd amino acid residue was substituted by an alanine residue, and a peptide Mut 4 (amino acid sequence: VSYKAAR, SEQ ID NO: 44) derived from FL4 of which the […] amino acid residue was substituted by an alanine residue to biotin. Subsequently, a biotinylated peptide/NeutrAvidin complex was produced by mixing each of the obtained biotinylated peptides and NeutrAvidin.
50 μL of physiological saline containing 5 μg of the complex or NeutrAvidin in terms of NeutrAvidin amount was administered into the base of the tail of each 7-week old C57BL/6 mouse on Day 0 and Day 10, and blood was collected on Day 17. As a control, a test was also carried out in the case where only physiological saline was administered in the same manner Meanwhile, in these tests, five mice in each group were used.
Sera were obtained from the blood collected on Day 17 and NeutrAvidin-specific antibody titer (IgG) in the sera was measured by ELISA. In FIG. 18, “NA” refers to the case of administration of NeutrAvidin, and “NA-FL4” refers to the case of administration of the biotinylated FL4/NeutrAvidin complex. Other peptides are shown in the same display format. Further, in FIG. 18, “cont” refers to the case where physiological saline was administered.

[2] = tested on: antigen-specific CD8^+ CTLs; experiment: Tetramer assay on regional lymph nodes, CD8+ CTL inducibility (Test Example 8); assay type: in vivo, mouse; conditions: co-administered with CpG oligodeoxynucleotide, 50 μg in terms of SL8 subcutaneously into the ears Day 0, lymph nodes Day 7
Experimental: A fusion peptide (SL8-FL4) was prepared by linking the N-terminus of the peptide consisting of the amino acid sequence of FL4 to the C-terminus of SL8 (SIINFEKL; SEQ ID NO: 40) which is an MHC class I epitope peptide in chicken ovalbumin (OVA). Specifically, the amino acid sequence of the fusion peptide is [Amino acid sequence of SL8 (SIINFEKL; SEQ ID NO: 40)]-[VSYKAIR; SEQ ID NO: 1]. The production method of the fusion peptide was the same as that of PspA-FL4 except that a DNA molecule encoding SL8 was used. In addition, each of peptide-fusion bodies (SL8-F8 and SL8-FL4Scr) in which the peptide was fused with SL8 was prepared using each of FL8 and the scramble peptide of FL4 (FL4Scr, amino acid sequence: YRSIVKA, SEQ ID NO: 41) in the same manner. […]
The tetramer assay was carried out as follows. Lymphocytes were recovered from the regional lymph nodes, were stained with fluorescently labeled antibodies against CD44 and CD8 and a fluorescently labeled tetramer recognizing the SL8 peptide presented on H-2K^b, then were analyzed using a flow cytometer.

[3] = tested on: EG7 cells; experiment: Tumor size in mice transplanted with EG7 cells (Test Example 9); assay type: in vivo, mouse; conditions: EG7 tumor bearing C57BL/6 mice, 50 μg as SL8 with 50 μg CpG oligodeoxynucleotide subcutaneously into the ears, compared with physiological saline
Experimental: In this test, whether the regression effect of cancer was observed by SL8-specific CD8^+ CTLs induced by SL8-FL4 was evaluated. In this test, EG7 cells (cancer cells expressing OVA protein in EL4 cells derived from thymoma of C57BL/6 mouse) were used as cancer cells. Specific test methods are as follows.
1 (10^6 EG7 cells were transplanted into the abdomen of 7-week old C57BL/6 mice to prepare tumor bearing mice. 50 μL of physiological saline containing 50 μg of SL8-FL4 in terms of SL8 amount and 50 μg of CpG oligodeoxynucleotide (K3 type, product name “K3 Et-Free”, product number “CN-65003” manufactured by GeneDesign Inc.) was administered subcutaneously into the ears of mice after EG7 cells were transplanted and the tumor diameter reached about 5 mm (about 5 days after transplantation). Thereafter, tumor size was measured over time while breeding the mice. In addition, similar tests were carried out with regard to the case where 50 μL of physiological saline containing 50 μg SL8 and 50 μg of CpG oligodeoxynucleotide was administered, and the case where only physiological saline was administered (control). Meanwhile, in these tests, five mice in each group were used.

[4] = tested on: mouse-derived dendritic cells (FL-DCs); experiment: Binding of phage clones to mouse-derived dendritic cells by flow cytometric analysis (Test Example 1); assay type: cell-based; conditions: phage clone displaying the peptide, 1.6×10^10 pfu/mL, 1×10^5 mouse-derived dendritic cells, flow cytometry with antibody against the phage
Experimental: Meanwhile, in the following test examples, unless otherwise indicated, as mouse-derived dendritic cells, dendritic cells (FL-DCs) that were obtained by culturing murine bone marrow cells in the presence of Flt3-L (final concentration 100 ng/ml) for 1 week to induce differentiation were used. In addition, in the following test examples, FL-DCs were analyzed in some cases separately for Plasmacytoid DCs (pDCs), CD11b positive dendritic cells (CD11b^+ DCs), and CD11b negative dendritic cells (CD11b^− DCs). Among the mouse-derived dendritic cells, pDCs is a group of CD11c positive and B220 positive cells; CD11b^+ DCs is a group of CD11c positive, B220 negative and CD11b positive cells among mouse-derived dendritic cells; CD11b^− DCs is a group of CD11c positive, B220 negative, and CD11b negative cells among mouse-derived dendritic cells.
Each of phages recovered by three panning operations was monocloned and amplified. 1×10^5 mouse-derived dendritic cells and 1.6×10^10 pfu/mL of each phage clone were mixed, and then the phage was assayed for the binding to dendritic cells by flow cytometric analysis using an antibody against the phage.
About 60 phage clones obtained were subjected to flow cytometric analysis as described above. As a result, 37 clones shown in Table 1 were identified as clones capable of binding to dendritic cells. […]

[5] = tested on: dendritic cells contained in splenocytes; experiment: Binding of phage clones to dendritic cells contained in splenocytes, flow cytometry (Test Example 6); assay type: cell-based, mouse; conditions: phage clone 1.6×10^10 pfu/mL, 1×10^5 splenocytes
Experimental: (§1) Specifically, 1×10^5 splenocytes collected from mice and 1.6×10^10 pfu/mL of each phage clone were mixed, and the biotinylated antibody to the phage was added. Further, streptavidin modified with a fluorescent dye was added, and the binding of the phage to splenocytes was evaluated by flow cytometric analysis.

[6] = tested on: CD4^+ T cells contained in splenocytes; experiment: Binding of phage clones to CD4+ T cells contained in splenocytes, flow cytometry (Test Example 6); assay type: cell-based, mouse; conditions: phage clone 1.6×10^10 pfu/mL, 1×10^5 splenocytes
Experimental: as §1

[7] = tested on: PspA-specific antibodies; experiment: PspA-specific antibody titer in sera of mice given fusion peptide, ELISA (Test Example 2); assay type: in vivo, mouse; conditions: C57BL/6 mice
Experimental: 50 μL of physiological saline containing 1 μg of the fusion peptide or PspA in terms of PspA amount was administered into the base of the tail of each of 7-week old C57BL/6J JmsSlc mice (hereinafter sometimes abbreviated as C57BL/6 mice) on Day 0 and Day 10, and blood was collected on Day 17. As a control, a test was also carried out in the case where only physiological saline was administered in the same manner. Further, a test was also carried out in the case where 50 μL of physiological saline containing 10 μg of CpG oligodeoxynucleotide (K3 type, product name “K3 Et-Free”, product number “CN-65003” manufactured by GeneDesign Inc.) in addition to 1 μg of the fusion peptide or PspA in terms of PspA amount was administered in the same manner Meanwhile, in these tests, five mice in each group were used.
Sera were obtained from the blood collected on Day 17 and PspA-specific antibody titers (IgG, IgG1, and IgG2a) in the sera were measured by ELISA. In FIGS. 3 to 5, “PspA WT” refers to PspA, “PspA-FL4” refers to the fusion peptide in which the N-terminus of a peptide obtained by binding three amino acid sequences of FL4 directly and tandemly was linked to the C-terminus of PspA, “PspA WT+CpG” refers to the case where PspA and CpG oligodeoxynucleotide were administered. In addition, in FIGS. 3 to 5, the same meaning applies to the same display format as “PspA-FL4” and “PspA WT+CpG”. […]

[8] = tested on: Streptococcus pneumoniae; experiment: Streptococcus pneumoniae challenge of mice immunized with fusion peptide (Test Example 3); assay type: in vivo
Experimental: The following test was carried out by using a fusion peptide (FL4-PspA, amino acid sequence: [Amino acid sequence of PspA]-[VSYKAIR; SEQ ID NO: 1]-[VSYKAIR; SEQ ID NO: 1]-[VSYKAIR; SEQ ID NO: 1]) that was prepared in Test Example 2, by linking the N-terminus of a peptide obtained by binding three amino acid sequences of FL4 directly and tandemly to the C-terminus of PspA.
Immunity induction was carried out by administering 50 μL of physiological saline containing 1 μg of FL4-PspA or PspA in terms of PspA amount into the base of the tail of each of 7-week old C57BL/6 mice on Day 0 and Day 10. Then, intranasal administration (one of the nostrils of 15 μL) of Streptococcus pneumoniae (1.7×10^9 cfu/ml: […]) was performed on Day 18, and the body weight and survival rate of each mouse after Streptococcus pneumoniae administration were determined. In addition, as a control, a test was also carried out in the case where only physiological saline was administered in the same manner without conducting immunization. Further, a test was also carried out in the case where 50 μL of physiological saline containing 10 μg of CpG oligodeoxynucleotide (K3 type, product name “K3 Et-Free”, product number “CN-65003” manufactured by GeneDesign Inc.) in addition to 1 μg of FL4-PspA or PspA in terms of PspA amount was administered in the same manner Meanwhile, in these tests, five mice in each group were used.
Meanwhile, in FIG. 6, the day on which Streptococcus pneumoniae was administered is shown as Day 0. In addition, the meanings of the abbreviations in FIG. 6 are as indicated in the column of Test Example 2 above.

For VSAKAIR (Mut3 peptide) [Mut 3], the NeutrAvidin-specific antibody production [1] was “an excellent antibody-producing ability is recognized unlike the case where each of the amino acid sequences of Mut 3 and Mut 4 is contained”.

In the case of “ASYKAIR (Amino acid sequence of motif sequence) [Mut 1]”, the NeutrAvidin-specific antibody production [1] was “excellent production ability”.

In the case of “VAYKAIR (Amino acid sequence of motif sequence) [Mut 2]”, the NeutrAvidin-specific antibody production [1] was “excellent production ability”.

For SIINFEKL [SL8, reference compound], the “induction of antigen-specific CD8+ CTLs (tetramer assay, regional lymph nodes)” value [2] was “could not be induced” and the tumor regression effects [3] was “some tumor regression effects”.

For “GGSKPVR (phage display; displayed peptide) [FL8]”, the “binding of phage clone to dendritic cells” value [4] was “binding to bone marrow-derived dendritic cells was confirmed”, the “binding of phage clone to dendritic cells contained in splenocytes” value [5] was “bind to all dendritic cells contained in splenocytes” and the “binding of phage clone to CD4+ T cells contained in splenocytes” value [6] was “also bound to CD4^+ T cells contained in splenocytes”.

With “[Amino acid sequence of PspA]-[VSYKAIR; SEQ ID NO: 1]-[VSYKAIR; SEQ ID NO: 1]-[VSYKAIR; SEQ ID NO: 1] [PspA-FL4]” the “production ability of PspA-specific antibodies” value ([7]; 1 μg in terms of PspA into base of tail Day 0 and Day 10, serum Day 17, ELISA) was “remarkably improve”, the “PspA-specific antibody titer compared with PspA and adjuvant (CpG oligodeoxynucleotide) administered at the same time” value ([7]; fusion peptide without adjuvant, serum Day 17) was “remarkably higher” and the “body weight after administration of Streptococcus pneumoniae” value ([8]; C57BL/6 mice immunized Day 0 and Day 10 (1 μg as PspA), intranasal 5.1×10^7 cfu/mouse Day 18) was “no decrease in body weight was observed”. The infection protective ability ([8]; C57BL/6 mice, Streptococcus pneumoniae intranasal challenge) was “strong infection protective ability” and the survival rate ([8]; after 10 days from the administration of Streptococcus pneumoniae, C57BL/6 mice) was 100%.

With VSYKAAR (Mut 4 peptide) the NeutrAvidin-specific antibody production [1] was “an excellent antibody-producing ability is recognized unlike the case where each of the amino acid sequences of Mut 3 and Mut 4 is contained”.
